Some test systems named below: ACHN renal; CAKI-1 renal; HCT-116 colon; HOP-92 NSCLC; MDA-MB-231 breast; NCI-H23 lung; NCI-H460 lung; NCI/ADR-RES ovarian; OVCAR-3 ovarian; OVCAR-5 ovarian; RPMI-8226 leukemia; SF-268 CNS; SK-MEL-2 melanoma; SK-MEL-28 melanoma; SN12C renal; SR leukemia; CCRF-CEM leukemia; HL-60(TB) leukemia; MDA-MB-435.
Experiment in all cases: NCI tumour cell line growth inhibition, 48 h

The values below come from PubChem BioAssay (NCI).

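Assay format: 96-well plates, 48-hour exposure. TGI marks complete inhibition of growth.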

Turning to `O=C(/C=C/c1ccccc1)/C=N/N1C(=S)N(c2ccccc2)C(=Nc2ccccc2)C1=Nc1ccccc1`, the TGI with ACHN renal, in the assay on CAKI-1 renal, in the assay on HCT-116 colon, in the assay on HOP-92 NSCLC, in the assay on MDA-MB-231 breast and with NCI-H23 lung was > 100 µM each time. The TGI with NCI-H460 lung, in the assay on NCI/ADR-RES ovarian, in the assay on OVCAR-3 ovarian, with OVCAR-5 ovarian, in the assay with RPMI-8226 leukemia and with SF-268 CNS was > 100 µM in each case. In addition, the TGI in the assay on SK-MEL-2 melanoma, in the assay with SK-MEL-28 melanoma, in the assay on SN12C renal and with SR leukemia was > 100 µM each time.

Consider `[N-]=[N+]=Nc1c(C=O)c(=O)n2c3c(cccc13)CCC2`, for which the TGI with ACHN renal is 11.5 µM; in the assay with CAKI-1 renal, 16.2 µM; with CCRF-CEM leukemia, 6.44 µM; with HCT-116 colon, 10.9 µM; in the assay with HL-60(TB) leukemia, > 100 µM; in the assay on HOP-92 NSCLC it was 4.5 µM. Further, the TGI in the assay on MDA-MB-231 breast was 32.1 µM; in the assay on MDA-MB-435, 20.1 µM; in the assay with NCI-H23 lung, 12.2 µM; with NCI-H460 lung it was 47.2 µM; in the assay with NCI/ADR-RES ovarian, > 45.6 µM; with OVCAR-3 ovarian, 6.27 µM. For the same compound, the TGI with OVCAR-5 ovarian was 21 µM; in the assay with RPMI-8226 leukemia, > 22.3 µM; in the assay on SF-268 CNS it was 35.4 µM; with SK-MEL-28 melanoma, 27.2 µM; in the assay with SN12C renal, 37.5 µM.

As to `O=C1[C@H]2ON(c3ccccc3)C(c3ccccc3Cl)[C@H]2C(=O)N1c1ccc(Cc2ccc(N3C(=O)[C@@H]4ON(c5ccccc5)C(c5ccccc5Cl)[C@@H]4C3=O)cc2)cc1` (some centres not stated), the TGI with ACHN renal, in the assay with CAKI-1 renal, in the assay with CCRF-CEM leukemia, in the assay on HCT-116 colon, in the assay with HL-60(TB) leukemia and in the assay on HOP-92 NSCLC was > 100 µM each time. Moreover, the TGI in the assay with NCI-H23 lung, with NCI-H460 lung, in the assay on OVCAR-3 ovarian, in the assay with OVCAR-5 ovarian, in the assay on RPMI-8226 leukemia and in the assay on SF-268 CNS was > 100 µM in each case. Besides, the TGI with SK-MEL-2 melanoma, with SK-MEL-28 melanoma, with SN12C renal and in the assay on SR leukemia was > 100 µM throughout.

With `CCOC(=O)C(=[N+]=[N-])C(=O)C1(C(=O)OCC)CCN(C(=O)c2ccccc2)C1=O` (configuration not stated), the TGI in the assay with ACHN renal, in the assay with CAKI-1 renal, in the assay with CCRF-CEM leukemia, with HCT-116 colon, in the assay with HL-60(TB) leukemia and in the assay on HOP-92 NSCLC was > 100 µM each time. The TGI with MDA-MB-231 breast, in the assay on NCI-H23 lung, in the assay on NCI-H460 lung, with NCI/ADR-RES ovarian, with OVCAR-5 ovarian and with SF-268 CNS was > 100 µM in each case. Further, the TGI with SK-MEL-2 melanoma and with SN12C renal was > 100 µM in each case.

Take `CCCCCCCCCCCC(=O)Oc1c(Cl)cc(Cl)c(OC(=O)C(=O)Oc2c(Cl)cc(Cl)c(OC(=O)CCCCCCCCCCC)c2Cl)c1Cl`: the TGI in the assay on ACHN renal, with CAKI-1 renal, in the assay on CCRF-CEM leukemia, in the assay on HCT-116 colon, with HOP-92 NSCLC and with MDA-MB-435 was > 100 µM each time. Further, the TGI with NCI-H23 lung, in the assay on NCI-H460 lung, with NCI/ADR-RES ovarian, in the assay on OVCAR-5 ovarian, in the assay with RPMI-8226 leukemia and in the assay on SF-268 CNS was > 100 µM throughout. The TGI with SK-MEL-28 melanoma, in the assay on SN12C renal and in the assay on SR leukemia was > 100 µM throughout.

For `CC(=O)OCOC(=O)CN(CC(=O)OCOC(C)=O)Cc1cc2c(cc1OC(C)=O)Oc1cc(OC(C)=O)c(CN(CC(=O)OCOC(C)=O)CC(=O)OCOC(C)=O)cc1C21OC(=O)c2ccccc21`, the TGI with ACHN renal was found to be 4.02 µM; in the assay with CAKI-1 renal, 6.77 µM; in the assay on CCRF-CEM leukemia, 0.374 µM; in the assay with HCT-116 colon it was 1.5 µM; in the assay on HL-60(TB) leukemia it was 0.0289 µM; in the assay on HOP-92 NSCLC, 3.06 µM. For the same compound, the TGI in the assay on MDA-MB-231 breast worked out at 3.64 µM; with MDA-MB-435 it was 2.02 µM; with NCI-H23 lung, 2.51 µM; in the assay with NCI-H460 lung it was 1.45 µM; in the assay with NCI/ADR-RES ovarian it was 75 µM; in the assay on OVCAR-3 ovarian it was 2.98 µM. Further, the TGI in the assay on OVCAR-5 ovarian was determined as 11.1 µM; with SF-268 CNS, 4.22 µM; in the assay on SK-MEL-2 melanoma it was 2.33 µM; in the assay with SK-MEL-28 melanoma, 1.76 µM; in the assay with SN12C renal, 2.83 µM.

As for `NC1C[C@H](n2cc(/C=C/Br)c(=O)[nH]c2=O)C[C@@H]1CO` (some centres not stated), the TGI in the assay on ACHN renal, in the assay with CCRF-CEM leukemia, with HL-60(TB) leukemia, in the assay with NCI-H23 lung, with NCI-H460 lung and with OVCAR-3 ovarian was > 100 µM each time. Further, the TGI with RPMI-8226 leukemia, with SF-268 CNS, with SK-MEL-28 melanoma and with SN12C renal was > 100 µM each time.

In the case of `CC(NNC(=O)c1ccncc1)c1ccc(F)cc1` (configuration not stated), the TGI in the assay with ACHN renal, with CAKI-1 renal, in the assay with CCRF-CEM leukemia, in the assay with HCT-116 colon, in the assay on HL-60(TB) leukemia and with HOP-92 NSCLC was > 100 µM throughout. The TGI in the assay on MDA-MB-231 breast, in the assay on MDA-MB-435, in the assay with NCI-H23 lung, in the assay on NCI-H460 lung, with NCI/ADR-RES ovarian and in the assay on OVCAR-3 ovarian was > 100 µM in each case. For the same compound, the TGI in the assay on OVCAR-5 ovarian, in the assay on SF-268 CNS, in the assay on SK-MEL-2 melanoma, in the assay with SK-MEL-28 melanoma and with SN12C renal was > 100 µM in each case.
